Patent US20100022483A1, “Substituted Tetracycline Compounds” (Paratek Pharmaceuticals, Inc., priority 2008, published 2010)
In brackets after ≈: the same amount, converted by molar mass. Read-outs that look alike come from different tables or passages of the source.

Key:
[1] = test system: gram positive bacteria; assay: In vitro anti-bacterial activity assay (broth dilution MIC), gram positive bacteria; type: cell-based, S. aureus; settings: 18 h
Source text: (§1) Bacterial infections may be caused by a wide variety of gram positive and gram negative bacteria. Some of the compounds of the invention are useful as antibiotics against organisms which are resistant and/or sensitive to other tetracycline compounds. The antibiotic activity of the tetracycline compounds of the invention may by using the in vitro standard broth dilution method described in Waitz, J. A., CLSI, Document M7-A2, vol. 10, no. 8, pp. 13-20, 2nd edition, Villanova, Pa. (1990).
(§2) The following assay was used to determine the efficacy of the tetracycline compounds against gram positive and gram negative bacteria. 2 mg of each compound was dissolved in 100 μl of DMSO. […] The tetracycline compound solutions were diluted to 50 μL volumes, with a test compound concentration of 0.098 μg/ml. Optical density (OD) determinations were made from fresh log-phase broth cultures of the test strains. Dilutions were made to achieve a final cell density of […] CFU/ml. At OD=1, cell densities for different genera were approximately:
(§3) 50 μl of the cell suspensions were added to each well of microtiter plates. The final cell density was approximately 5×10^5 CFU/ml. These plates were incubated at 35° C. in an ambient air incubator for approximately 18 hours. The plates were read with a microplate reader and were visually inspected when necessary. The MIC was defined as the lowest concentration of the tetracycline compound that inhibits growth. Table 3 includes MIC data for several substituted tetracycline compounds.

[2] = in vitro; type: cell-based; settings: Chinese hamster, Cytotox. CHO-K1
Description: (§4) COS-1 and CHO-K1 cell suspensions were prepared, seeded into 96-well tissue culture treated black-walled microtiter plates (density determined by cell line), and incubated overnight at 37° C., in 5% CO2 and approximately 95% humidity. The following day, serial dilutions of compound were prepared under sterile conditions and transferred to cell plates. Cell/Compound plates were incubated under the above conditions for 24 hours. Following the incubation period, media/compound was aspirated and 50 μl of resazurin (0.042 mg/ml in PBS w/Ca and Mg) is added. The plates were then incubated under the above conditions for 2 hours and then placed in the dark at room temperature for an additional 30 minutes. Fluorescence measurements were taken (excitation 535 nm, emission 590 nm). The IC50 (concentration of compound causing 50% growth inhibition) was then calculated. Table 3 includes IC50 data for several substituted tetracycline compounds.

[3] = Mammalian cytotoxicity assay (resazurin), COS-1 cells; type: cell-based; settings: African green monkey, read-out: Cytotox. COS-1
Description: as §4

[4] = test system: gram negative bacteria; assay: In vitro anti-bacterial activity assay (broth dilution MIC), gram negative bacteria; type: cell-based, E. coli
Source text: as §1, §2, §3

[5] = test system: 3T3 fibroblast cells; assay: In vitro phototoxicity assay (neutral red; UV light-treated vs dark control plates); type: cell-based; settings: for Photo Toxicity UV Tox50: UV light 50 minutes; for Photo Toxicity Dark Tox50: dark control plate
Description: 3T3 fibroblast cells were harvested and plated at a concentration of 1×10^5 cells/mL and the plates were incubated overnight at 37° C., in 5% CO2 and approximately 95% humidity. On the following day the medium was removed from the plates and replaced with Hanks' Balanced Salt Solution (HBSS). Compound dilutions were made in HBSS and added to the plates. For each compound tested, a duplicate plate was prepared that was not exposed to light as a control for compound toxicity. Plates were then incubated in a dark drawer (for controls), or under UV light (meter reading of 1.6-1.8 mW/cm^2) for 50 minutes. Cells were then washed with HBSS, fresh medium was added, and plates were incubated overnight as described above. The following day neutral red was added as an indicator of cell viability. The plates were then incubated for an additional 3 hours. Cells were then washed with HBSS and blotted on absorbent paper to remove excess liquid. A solution of 50% EtOH, 10% glacial acetic acid was added and after 20 minutes incubation the plate's absorbance at 535 nm was read using a Wallac Victor 5 spectrophotometer. The phototoxicity reflected the difference between the light-treated and control cultures. Table 3 includes phototoxicity (μM) data for several substituted tetracycline compounds.

[6] = Staphylococcus aureus, S. aureus MRSA5, read-out: Median MIC's G+ S. aureus MRSA5
[7] = Staphylococcus aureus, S. aureus RN450, read-out: Median MIC's G+ S. aureus RN450
[8] = Streptococcus pneumoniae, S. pneumoniae 157E-Strep, read-out: Median MIC's G+ S. pneumoniae 157E-Strep
[9] = Escherichia coli, 18 h, E. coli D1 209, read-out: Median MIC's G− E. coli D1 209
[10] = Escherichia coli, 18 h, E. coli MG 1655, read-out: Median MIC's G− E. coli MG 1655
[11] = Escherichia coli, ATCC25922, 18 h, E. coli ATCC 25922, read-out: Median MIC's G− E. coli ATCC 25922
[12] = Pseudomonas aeruginosa, 18 h, P. aeruginosa K201 PAO6609, read-out: Median MIC's G− P. aeruginosa K201 PAO6609

| SMILES | MIC [1, 6] [µg/mL] | MIC [1, 7] [µg/mL] | MIC [1, 8] [µg/mL] | IC50 at 24 h [2] [µM] | IC50 at 24 h [3] [µM] | MIC [4, 9] [µg/mL] | MIC [4, 10] [µg/mL] | MIC [4, 11] [µg/mL] | MIC [4, 12] [µg/mL] | Photo Toxicity UV Tox50 [5] | Photo Toxicity Dark Tox50 [5] |
| --- | --- | --- | --- | --- | --- | --- | --- | --- | --- | --- | --- |
| CN(C)CCNC(=O)c1cccc(-c2ccc(O)c3c2C[C@H]2C[C@H]4[C@@H](N(C)C)C(O)=C(C(N)=O)C(=O)[C@@]4(O)C(O)=C2C3=O)c1 [A] | 64 (≈ 106 µM) | 8 (≈ 13.2 µM) | 4 (≈ 6.62 µM) | > 200 | > 200 | 64 (≈ 106 µM) | 64 (≈ 106 µM) | 64 (≈ 106 µM) | 64 (≈ 106 µM) | M: >200 uM | M: >200 uM |
| CN1CCN(CC(=O)c2ccc(O)c3c2C[C@H]2C[C@H]4[C@H](N(C)C)C(O)=C(C(N)=O)C(=O)[C@@]4(O)C(O)=C2C3=O)CC1 [BB] | 16 (≈ 28.8 µM) | 2 (≈ 3.61 µM) | 1 (≈ 1.8 µM) | > 136 | > 136 | 64 (≈ 115 µM) | 8 (≈ 14.4 µM) | 32 (≈ 57.7 µM) | 64 (≈ 115 µM) | >135.54 µM | >135.54 µM |
| CN(C)CC(=O)Nc1ccc(-c2ccc(O)c3c2C[C@H]2C[C@H]4[C@H](N(C)C)C(O)=C(C(N)=O)C(=O)[C@@]4(O)C(O)=C2C3=O)cc1 [BC] | 2 (≈ 3.39 µM) | 0.06 (≈ 0.102 µM) | 0.06 (≈ 0.102 µM) | > 13.6 | > 13.6 | 1 (≈ 1.69 µM) | 2 (≈ 3.39 µM) | 1 (≈ 1.69 µM) | 64 (≈ 108 µM) | >135.63 µM | >135.63 µM |
| CN(C)CCc1ccc(O)c2c1C[C@H]1C[C@H]3[C@H](N(C)C)C(O)=C(C(N)=O)C(=O)[C@@]3(O)C(O)=C1C2=O [BD] | 32 (≈ 65.9 µM) | 0.5 (≈ 1.03 µM) | 0.13 (≈ 0.268 µM) | > 121 | > 121 | 64 (≈ 132 µM) | 4 (≈ 8.24 µM) | 4 (≈ 8.24 µM) | 64 (≈ 132 µM) | M: >120.91 uM | M: >120.91 uM |
| COc1ccc(-c2ccc(O)c3c2C[C@H]2C[C@H]4[C@H](N(C)C)C(O)=C(C(N)=O)C(=O)[C@@]4(O)C(O)=C2C3=O)cc1CNCC(N)=O [BE] | 32 (≈ 52.8 µM) | 1 (≈ 1.65 µM) | 0.13 (≈ 0.214 µM) | > 10.8 | > 10.8 | 64 (≈ 106 µM) | 16 (≈ 26.4 µM) | 64 (≈ 106 µM) | 64 (≈ 106 µM) | >107.82 µM | >107.82 µM |
| CN(C)[C@@H]1C(O)=C(C(N)=O)C(=O)[C@@]2(O)C(O)=C3C(=O)c4c(O)ccc(-c5coc(CN6CCCCC6)c5)c4C[C@H]3C[C@@H]12 [BF] | 1 (≈ 1.73 µM) | 0.06 (≈ 0.104 µM) | 0.06 (≈ 0.104 µM) | > 42.9 | > 42.9 | 0.5 (≈ 0.866 µM) | 1 (≈ 1.73 µM) | 0.25 (≈ 0.433 µM) | 64 (≈ 111 µM) | >138.34 µM | >138.34 µM |
| COCCNCc1ccc(-c2ccc(O)c3c2C[C@H]2C[C@H]4[C@H](N(C)C)C(O)=C(C(N)=O)C(=O)[C@@]4(O)C(O)=C2C3=O)cc1 [BG] | 1 (≈ 1.73 µM) | 0.06 (≈ 0.104 µM) | 0.06 (≈ 0.104 µM) | 45.3 to 125 | > 95.6 | 0.5 (≈ 0.866 µM) | 0.5 (≈ 0.866 µM) | 0.25 (≈ 0.433 µM) | 64 (≈ 111 µM) | >146.03 µM | >146.03 µM |
